The values that follow come from ChEMBL document CHEMBL1201862, “PubChem BioAssay data set” (2004).

Assay in all cases: inhibition of tumour cell growth, NCI panel, 48 h
Assay [1] concerns MDA-N.
Assay [2] deals with PC-3.
Assay [3] deals with DU-145.
The test system of assay [4] is DLD-1.
In assay [5] the test system is DMS-273.
Assay [6] concerns HOP-18.
Assay [7] concerns M19-MEL.

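Grown in 96-well plates, cells were treated for 48 hours with each compound at five concentrations. Insufficient inhibition: endpoint recorded as highest concentration tested. GI50: concentration for 50% inhibition of growth.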 Calls of active or inactive are those of the source. Rule as the data show it: active = GI50 up to about 1.1 µM and inactive = higher. Some results are limits rather than exact numbers.

With `CC(C)c1nccn1Cc1ccc(Cl)cc1Cl`, the GI50 in assay [1] was 38.6 µM (inactive); in assay [2], 46.5 µM (inactive); in assay [3], 14.8 µM (inactive).

In the case of `O=C1[C@@H]2[C@@H](CN3CN(c4ccccc4)N=C(c4ccccc4)[C@@]23c2ccccc2)C(=O)N1c1ccccc1`, the figures for the GI50 in assay [1], in assay [2] and in assay [3] were 5.19 µM (inactive), 6.31 µM (inactive) and 7.14 µM (inactive), respectively.

For `Cc1cccc(NC(=S)N/N=C2\C(=O)Nc3ccccc32)c1`, the GI50 in assay [1] is > 100 µM (inactive); in assay [2], 68.4 µM (inactive); in assay [3], 14.1 µM (inactive).

With `COc1cc([C@@H]2c3cc4c(cc3[C@@H](Nc3ccc(Cl)cc3C(=O)c3ccccc3Cl)[C@H]3COC(=O)[C@H]23)OCO4)cc(OC)c1OC`, the GI50 was 0.0873 µM (active) in assay [1], 0.16 µM (active) in assay [2] and 0.314 µM (active) in assay [3].

Consider `CC1C2CC(C(C3C(=O)C4CC3C(C)(C)C4C)C2=O)C1(C)C` (stereo unspecified), for which the GI50 in assay [1], in assay [2] and in assay [3] was > 100 µM (inactive) throughout.

In the case of `Cc1cc(N(CCC#N)CCC#N)ccc1/N=N/c1cc(Cl)ccc1Cl`, the GI50 in assay [4] was 10.6 µM (inactive); in assay [5], 14.4 µM (inactive); in assay [6], 10.2 µM (inactive); in assay [7] it was 13.7 µM (inactive).

On to `CC1CCC(=O)C(C(O)CC2CC(=O)N(c3ccccc3)C(=O)C2)C1` (stereo unspecified), for which the GI50 in assay [4], in assay [5], in assay [6] and in assay [7] was > 100 µM (inactive) in each case.

Regarding `COc1ccc2cc(CN3CCC(C4CCN(Cc5ccc6cc(OC)ccc6c5)CC4)CC3)ccc2c1`, the GI50 in assay [1] was 2.04 µM (inactive); in assay [2], 15.8 µM (inactive); in assay [3], 6.21 µM (inactive).

As for `CC12CCC3C(CCC4=CC(O)CCC43C=O)C1(O)CCC2c1ccc(=O)oc1` (stereo unspecified), the GI50 in assay [5] was 0.00497 µM (active); in assay [6] it was 0.0107 µM (active); in assay [7], 0.0128 µM (active).

As for `COc1cccc(CCn2c(N)c(C#N)c3ccc([N+](=O)[O-])cc3c2=O)c1`, the GI50 in assay [1] was 0.256 µM (active); in assay [2], > 46.5 µM (inactive); in assay [3], > 46.5 µM (inactive).

As to `CC1=CCC2CC1C(C(=O)c1c[nH]c3ccccc13)=NC2(C)C` (stereo unspecified), the GI50 in assay [1] was > 10 µM (inactive); in assay [2], 30.8 µM (inactive); in assay [3] it was > 100 µM (inactive).

Regarding `CSc1nc2c(c(=O)n1C)N=C(c1ccc(Cl)cc1)CC(c1ccccc1)N2` (stereo unspecified), the GI50 in assay [1] was 15.7 µM (inactive); in assay [2], 24.3 µM (inactive); in assay [3], 24.7 µM (inactive).

For `CCCc1[nH]c2ccccc2c1-c1c(CCC)[nH]c2ccccc12`, the GI50 in assay [1] is 7.96 µM (inactive); in assay [2] it was 5.42 µM (inactive); in assay [3] it was 11.3 µM (inactive).

Take `Cc1cc(O)nc(NNC(C#N)c2ccc(O)cc2)n1` (stereo unspecified): the GI50 in assay [4], in assay [5], in assay [6] and in assay [7] was > 100 µM (inactive) throughout.

For the compound `Oc1ccc(-c2nc3ccc4ccccc4c3c3c2CCCC3)c(O)c1`, the GI50 in assay [1] was 17.2 µM (inactive); in assay [2], 21.6 µM (inactive); in assay [3], 35.3 µM (inactive).

Consider `O=C(O)CNC(=O)c1cccc2c(=O)c3ccccc3[nH]c12`, for which the GI50 in assay [1], in assay [2] and in assay [3] was > 100 µM (inactive) each time.

Consider `CCOC(=O)/C=C1\Oc2ccccc2C1(C)O` (stereo unspecified), for which the GI50 in assay [4], in assay [5], in assay [6] and in assay [7] was > 100 µM (inactive) throughout.

On to `CCC(Sc1cc(Cl)c(C)cc1S(=O)(=O)Nc1nc(N)nc(N(C)C)n1)C(=O)O` (stereo unspecified), for which the GI50 in assay [1], in assay [2] and in assay [3] was > 10 µM (inactive) each time.

Turning to `C=C1N(C)c2ccc(S(=O)(=O)c3ccc4c(c3)C(C)(C)C(=C)N4C)cc2C1(C)C`, the values for the GI50 in assay [1], in assay [2] and in assay [3] were 39 µM (inactive), 35.5 µM (inactive) and 60 µM (inactive), respectively.

As for `CC(C)=C[C@@H]1C[C@H](C)[C@H]2CC[C@H](C)[C@H]3C(=O)C(O)=C(C)C(=O)[C@]123`, the results for the GI50 in assay [1], in assay [2] and in assay [3] were > 100 µM (inactive), 27.4 µM (inactive) and > 100 µM (inactive), respectively.

On to `O=C(Nc1nc2ncn(CCO)c2c(=O)[nH]1)c1ccccc1`, for which the GI50 in assay [4], in assay [5], in assay [6] and in assay [7] was > 100 µM (inactive) throughout.

On to `CCOC(=O)C(SCCO)C(C(=O)OCC)n1ccc(=O)[nH]c1=O` (stereo unspecified), for which the GI50 is 34.8 µM (inactive) in assay [1], > 64 µM (inactive) in assay [2] and > 100 µM (inactive) in assay [3].

`C=C(Cl)C(Br)(CCl)CCC(Br)C(C)(C)Cl` (stereo unspecified): the GI50 in assay [1] is 3.49 µM (inactive); in assay [2], 6.12 µM (inactive); in assay [3], 13.7 µM (inactive).

On to `C/C(CC(O)(C(F)(F)F)C(F)(F)F)=N/Nc1ccc([N+](=O)[O-])cc1[N+](=O)[O-]`, for which the GI50 in assay [1] was 4.46 µM (inactive); in assay [2], 2.78 µM (inactive); in assay [3] it was 2.29 µM (inactive).

Regarding `CC(=O)N(C)SCC(NC(=O)C(Cc1ccccc1)NC(=O)OCc1ccccc1)C(=O)NC(Cc1ccccc1)C(=O)NC(Cc1cn(C=O)c2ccccc12)C(=O)NC(CCCCNC(=O)OCc1ccccc1)C(=O)NC(C(=O)NC(CSN(C)C(C)=O)C(=O)NO)C(C)OCc1ccccc1` (stereo unspecified), the GI50 in assay [1], in assay [2] and in assay [3] was > 100 µM (inactive) each time.

For the compound `CN(C)/C=N/CC(O)c1ccccc1` (stereo unspecified), the GI50 in assay [1], in assay [2] and in assay [3] was > 100 µM (inactive) each time.

On to `CCOC(=O)N/N=C(/N)Cc1ccccc1`, for which the GI50 in assay [1], in assay [2] and in assay [3] was > 100 µM (inactive) each time.

Take `O=C(NCCNCCO)N/N=C/c1cccc([N+](=O)[O-])c1`: the GI50 in assay [4], in assay [5], in assay [6] and in assay [7] was > 100 µM (inactive) in each case.

On to `O=C(CC/C(C/C(=N/O)c1ccc(F)cc1)=N/O)N(Cc1ccccc1)Cc1ccccc1`, for which the GI50 in assay [4], in assay [5], in assay [6] and in assay [7] was > 100 µM (inactive) each time.

In the case of `CN(C)CCC1(C2=CCCC2)CC/C(=C\c2ccccc2)C1=O` (stereo unspecified), the GI50 in assay [4] was 17.3 µM (inactive); in assay [5], 15.7 µM (inactive); in assay [6] it was 15.8 µM (inactive); in assay [7] it was 15.2 µM (inactive).

Take `CCCCCC[N+](C)(C)Cc1ccc(C[N+](C)(C)CCCCCC)cc1`: the GI50 is 4.42 µM (inactive) in assay [4], 1.83 µM (inactive) in assay [5], 4.69 µM (inactive) in assay [6] and 1.94 µM (inactive) in assay [7].

As to `CC(C)(O)/C=C/C(=O)[C@](C)(O)[C@H]1[C@H](O)C[C@@]2(C)[C@@H]3CC=C4[C@@H](C[C@H](O)C(=O)C4(C)C)[C@]3(C)C(=O)C[C@]12C` [CUCURBITACIN D], the GI50 was 0.0863 µM (active) in assay [4], 0.034 µM (active) in assay [5], 0.0748 µM (active) in assay [6] and 0.391 µM (active) in assay [7].
